ChEMBL document CHEMBL1201862, “PubChem BioAssay data set” (2004)
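The compound was tested at five concentrations on cells cultured in 96-well plates, with a 48-hour exposure period. GI50: concentration for 50% inhibition of growth.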 Active and inactive are the calls of the source. Rule as the data show it: active = GI50 up to about 1.1 µM and inactive = higher.

Key:
Experiment in all cases: NCI anticancer screen, dose series, 48 h
KM-20L2 = system: KM-20L2
DMS-273 = system: DMS-273
LXFL 529 = system: LXFL 529
SNB-78 = system: SNB-78
HOP-18 = system: HOP-18
M19-MEL = system: M19-MEL
XF498 = system: XF498
RXF 631 = system: RXF 631
DMS-114 = system: DMS-114

Row | SMILES | GI50 (KM-20L2) | GI50 (DMS-273) | GI50 (LXFL 529) | GI50 (SNB-78) | GI50 (HOP-18) | GI50 (M19-MEL) | GI50 (XF498) | GI50 (RXF 631) | GI50 (DMS-114)
1 | COC(=O)/C=C/C1C(C(=O)OC)C2(C(=O)OC)CCC1(C(=O)OC)N2 (centres undefined) | > 100 µM (inactive) | > 100 µM (inactive) | > 100 µM (inactive) | > 100 µM (inactive) | 96.8 µM (inactive) | > 100 µM (inactive) | > 100 µM (inactive) | > 100 µM (inactive) | 
2 | CC1=C(C(=O)Nc2ccccc2)C(c2ccc(Cl)c(Cl)c2)C(C(=O)Nc2ccccc2)=C(C)N1 | 14.9 µM (inactive) | 13 µM (inactive) | 12.9 µM (inactive) | 17.7 µM (inactive) |  | 12.9 µM (inactive) | 16.6 µM (inactive) | 12.4 µM (inactive) | 11.2 µM (inactive)
3 | CC(c1cccc2ccccc12)/[N+]([O-])=C/c1ccccc1 (centres undefined) | > 100 µM (inactive) | > 100 µM (inactive) | > 100 µM (inactive) |  | 36.1 µM (inactive) |  | > 100 µM (inactive) | > 100 µM (inactive) | > 100 µM (inactive)
4 | CSc1nnc(CCC(=O)Nc2c(C)cccc2C)o1 | > 100 µM (inactive) |  | > 100 µM (inactive) | > 100 µM (inactive) | > 100 µM (inactive) | > 100 µM (inactive) | > 100 µM (inactive) | > 100 µM (inactive) | > 100 µM (inactive)
5 | COc1ccc2nc(NC(=O)C(=O)C(C#N)c3ccc(Cl)c(Cl)c3)sc2c1 (centres undefined) | > 100 µM (inactive) | > 100 µM (inactive) | > 100 µM (inactive) | > 100 µM (inactive) |  | > 100 µM (inactive) | > 100 µM (inactive) | > 100 µM (inactive) | 78.9 µM (inactive)
6 | CCCCCCCCNC(=O)SCCCC | 33.3 µM (inactive) | 31.4 µM (inactive) | 38.5 µM (inactive) |  | 31 µM (inactive) | 40.5 µM (inactive) | 13.8 µM (inactive) | 39.1 µM (inactive) | 
7 | CCCc1ccc(/N=C\c2cc(OC)c(OC)c(OC)c2)cc1 | > 100 µM (inactive) | > 83.4 µM (inactive) | 99.3 µM (inactive) | > 100 µM (inactive) | > 100 µM (inactive) | > 100 µM (inactive) | > 100 µM (inactive) |  | 18.7 µM (inactive)
8 | CC(C)C(=O)/C=C/c1ccccc1 | 36.1 µM (inactive) | 65.2 µM (inactive) | > 100 µM (inactive) | 33.1 µM (inactive) | > 100 µM (inactive) | > 100 µM (inactive) | > 100 µM (inactive) |  | 
9 | N#C/C(=C\c1ccc(O)cc1O)C(N)=O | 28.2 µM (inactive) | > 100 µM (inactive) | > 100 µM (inactive) | > 100 µM (inactive) |  | > 100 µM (inactive) | 34.2 µM (inactive) |  | 
10 | Nc1c([N+](=O)[O-])nc(Cl)c2nncn12 | > 87.1 µM (inactive) | 16.5 µM (inactive) | > 78.9 µM (inactive) | > 100 µM (inactive) | > 100 µM (inactive) | > 100 µM (inactive) | > 100 µM (inactive) | > 100 µM (inactive) | > 42 µM (inactive)
11 | O=c1[nH]c2c3ccccc3ccc2c2cc3c(cc12)OCO3 | > 100 µM (inactive) | 67.1 µM (inactive) | 79.4 µM (inactive) | > 100 µM (inactive) | 2 µM (inactive) | > 100 µM (inactive) | 84.1 µM (inactive) | > 100 µM (inactive) | 
12 | Clc1ccc(C2SCc3nc4ccccc4n32)cc1Cl (centres undefined) |  |  | 11.8 µM (inactive) | 12.3 µM (inactive) | < 0.01 µM (active) | > 10 µM (inactive) | 12.1 µM (inactive) |  | 14.8 µM (inactive)
13 | CCOC(=O)/C(=C/c1ccc(C#N)cc1)N(CC)CC |  |  | > 100 µM (inactive) | > 100 µM (inactive) | 63 µM (inactive) | > 100 µM (inactive) | > 100 µM (inactive) | > 100 µM (inactive) | > 100 µM (inactive)
14 | CC(C)=CCC/C(C)=C/CC/C(C)=C/C1CCC(=O)C1(C)C (centres undefined) | 16.3 µM (inactive) |  | 17.3 µM (inactive) | 22.6 µM (inactive) | 22.4 µM (inactive) | 19.2 µM (inactive) | 18.2 µM (inactive) | 44.6 µM (inactive) | 14.5 µM (inactive)
15 | C[C@]12CCc3nn(-c4ccccc4)nc3C1CC[C@@H]1C2CC[C@]2(C)C(=O)CCC12 (some centres undefined) | > 100 µM (inactive) | > 100 µM (inactive) | > 100 µM (inactive) | > 100 µM (inactive) | > 100 µM (inactive) | > 100 µM (inactive) |  |  | > 100 µM (inactive)
16 | CC(=O)N1CCC(=O)/C(=C/c2ccccc2)C1 | 27.4 µM (inactive) | 33 µM (inactive) | 21.9 µM (inactive) | 38.5 µM (inactive) | 23.2 µM (inactive) | 20.4 µM (inactive) | 64 µM (inactive) | 28.9 µM (inactive) | 15.8 µM (inactive)
17 | CN1COc2c(n(C)c(=O)[nH]c2=O)C1 | > 100 µM (inactive) | 45.7 µM (inactive) | > 100 µM (inactive) | > 100 µM (inactive) | > 100 µM (inactive) | > 100 µM (inactive) | > 100 µM (inactive) |  | > 61.2 µM (inactive)
